# Laboratory results: patent publication US20030236294A1, “Compounds and methods for inducing apoptosis in proliferating cells” (priority 2002, published 2003)
# Assays:
# PC-3 cells = assay: Apoptosis induction in PC-3 cells (T1/2, time for 50% apoptotic death; cell viability / Cell Death Detection ELISA); conditions: for T½ (h) 50 μM: time required for eliciting 50% apoptotic death; for change in potency in apoptosis induction on replacement of —SO2NH2 with —CONH2: carboxamide versus sulfonamide counterpart, FIG. 10A; for classification as fast-acting or slow-acting apoptosis inducer: prostate cancer cells, FIG. 8
# Protocol: Induction of apoptosis was also assessed by using a “Cell Death Detection ELISA” assay (Boehringer-Mannheim) following the manufacturer's instructions. This test is based on the quantitative determination of cytoplasmic histone-associated DNA fragments in the form of mono- and oligonucleosomes after induced apoptotic death. […] Both floating and adherent cells were collected, and cell lysates equivalent to 10^4 cells were used for the ELISA analysis.
# Induction of apoptosis was also assessed by using a “Cell Death Detection ELISA” assay (Boehringer-Mannheim) by following the manufacturer's instructions. This test is based on the quantitative determination of cytoplasmic histone-associated DNA fragments in the form of mono- and oligonucleosomes after induced apoptotic death. […] Both floating and adherent cells were collected, and cell lysates equivalent to 10^4 cells were used in the ELISA.
# Both adherent and floating cells were combined for the assessment of cell viability. Cell viability was determined by trypan blue exclusion.
# LNCaP cells = assay: Apoptosis induction in LNCaP cells; assay type: cell-based, human; conditions: LNCaP (p53+/+), compared with PC-3; data not shown
# DU-145 cells = assay: Apoptosis induction in DU-145 cells; assay type: cell-based, human; conditions: DU-145 (p53−/−), compared with PC-3; data not shown
# [1] = system: Akt and ERK2 phosphorylation in PC-3 cells; assay: Western blot of Akt and ERK2 phosphorylation status; assay type: cell-based, human
# Protocol: Immunoblotting For western blot analysis, cells were washed in phosphate-buffered saline (PBS), resuspended in sodium dodecyl sulfate (SDS) gel-loading buffer consisting of 50 mM Tris-HCl, pH 6.8, 100 mM dithiothreitol, 2% SDS, 0.1% bromophenol blue, and 10% glycerol, sonicated with an ultrasonic sonicator for 5 seconds (Virsonic 300, 4.5 output), and boiled for 5 minutes. After a brief centrifugation, equivalent protein amounts (60-100 μg) from the soluble fractions were resolved in 10% SDS-polyacrylamide gels on a Minigel apparatus and transferred to a nitrocellulose membrane in a semidry transfer cell. The transblotted membrane was washed twice with Tris-buffered saline (TBS) containing 0.05% Tween 20 (TBST). After blocking with TBS containing 5% nonfat milk for 60 minutes, the membrane was incubated with the appropriate primary antibody (anti-COX-2, anti-Akt, anti-P-^473Ser Akt, anti-ERK, and anti-phospho-ERK antibodies diluted 1:1,000; anti-actin monoclonal antibody, diluted 1:5,000) in TBS-1% nonfat milk at 4° C. for 12 hours and washed twice with TBST. The membranes were probed with goat anti-rabbit IgG-horseradish peroxidase conjugates (diluted 1:5,000) for 1 hour at room temperature and washed twice with TBST. Bands were visualized by enhanced chemiluminescence.
# Immunoblotting. […]
# PGE2 production = assay: Prostaglandin E2 (PGE2) immunoassay; assay type: cell-based, human; conditions: 50 μM; 1F2, 3D9, 7D9 cells and parental PC-3 cells; data not shown
# Protocol: Culture medium was changed, and 24 hours later conditioned medium was collected to assay PGE2. Conditioned medium was centrifuged to remove particulate material, and then cells were collected by scraping to determine the protein concentration. PGE2 was assayed in 100 μL medium in triplicate according to the manufacturer's instruction (R&D Systems, Inc.; Minneapolis, Minn.). PGE2 data were normalized to protein content.
# COX-2 = molecular target: T1, COX-2 (Homo sapiens, UniProt P35354); conditions: Table 1; read-out: IC50 (μM), COX-2 inhibition; cited from earlier work
# T1 sequence (P35354 18-604): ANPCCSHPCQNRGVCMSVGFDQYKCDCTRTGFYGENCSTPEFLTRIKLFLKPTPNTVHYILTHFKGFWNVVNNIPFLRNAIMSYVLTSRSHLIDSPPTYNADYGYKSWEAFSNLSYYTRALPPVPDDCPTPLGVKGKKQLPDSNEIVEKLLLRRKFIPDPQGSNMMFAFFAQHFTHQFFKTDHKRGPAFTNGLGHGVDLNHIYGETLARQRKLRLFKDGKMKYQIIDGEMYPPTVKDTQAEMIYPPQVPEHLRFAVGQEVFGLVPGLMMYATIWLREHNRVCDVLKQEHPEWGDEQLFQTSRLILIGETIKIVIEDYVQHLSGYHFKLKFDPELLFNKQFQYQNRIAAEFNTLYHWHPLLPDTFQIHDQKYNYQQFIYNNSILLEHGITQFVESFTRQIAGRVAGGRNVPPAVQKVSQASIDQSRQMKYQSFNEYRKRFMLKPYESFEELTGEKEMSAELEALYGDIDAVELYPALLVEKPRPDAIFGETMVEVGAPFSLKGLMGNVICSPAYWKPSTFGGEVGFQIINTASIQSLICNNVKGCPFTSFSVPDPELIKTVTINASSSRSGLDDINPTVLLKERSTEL
molecule,measurement,setting,value
"CS(=O)(=O)c1ccc(C2=C(c3ccccc3)COC2=O)cc1 [Compound 47b, 3-(4′-methylsulfonylphenyl)-4-phenyl-2(5H)-furanone]",activity in eliciting apoptosis in PC-3 cells (in words),PC-3 cells; PC-3 cells,poor activity
Cc1cccs1 [Compound 27b],T½ (h) 50 μM,"PC-3 cells; 50 μM, Table 2",>100 h
"NS(=O)(=O)c1ccc(-n2nc(C(F)(F)F)cc2-c2ccc(Cl)cc2)cc1 [1a, 4-[5-(4-Chlorophenyl)-3-(trifluoromethyl)-1H-pyrazol-1-yl]benzenesulfonamide]",susceptibility to apoptosis induction,LNCaP cells,susceptibility identical to that of PC-3 cells
same,susceptibility to apoptosis induction,DU-145 cells,susceptibility identical to that of PC-3 cells
same,phosphorylation status of Akt and ERK2,[1]; PC-3 cells,concurrent dephosphorylation of Akt and ERK2
"4-[5-(2,5-Dichlorophenyl)-3-(trifluoromethyl)-1H-pyrazol-1-yl]benzene-carboxyamide [Compound 32b]",change in potency in apoptosis induction on replacement of —SO2NH2 with —CONH2,PC-3 cells,no appreciable change
NS(=O)(=O)c1ccc(-n2nc(C(F)(F)F)cc2-c2cc(Cl)ccc2Cl)cc1 [Example 5],T½ (h) 50 μM,"PC-3 cells; 50 μM, Table 1",3 h
Cc1ccc(C#N)cc1 [Compound 16b],T½ (h) 50 μM,"PC-3 cells; 50 μM, Table 2",>100 h
Cc1ccc(-c2cc(C(F)(F)F)nn2-c2ccc(S(N)(=O)=O)cc2)c(C)c1 [Example 9],T½ (h) 50 μM,"PC-3 cells; 50 μM, Table 1",2 h
Cc1cc(Cl)sc1Cl [Compound 29b],T½ (h) 50 μM,"PC-3 cells; 50 μM, Table 2",>100 h
"Cc1ccc(-c2cc(C(F)(F)F)nn2-c2ccc(S(N)(=O)=O)cc2)cc1 [celecoxib, 4-[5-(4-methylphenyl)-3-(trifluoromethyl)-1H-pyrazol-1-yl]benzenesulfonamide, reference compound]",susceptibility to apoptosis induction,LNCaP cells,susceptibility identical to that of PC-3 cells
same,susceptibility to apoptosis induction,DU-145 cells,susceptibility identical to that of PC-3 cells
same,phosphorylation of Akt and ERK2,[1]; all four antisense COX-2 clones,decreased phosphorylation of Akt and ERK2
same,time to 50% decrease in cell viability,"PC-3 cells; 50 μM, PC-3 cells",2 h
same,T½ (h) 50 μM,"PC-3 cells; 50 μM, Table 2",2 h
COc1ccc(C)c(OC)c1 [Compound 22b],T½ (h) 50 μM,"PC-3 cells; 50 μM, Table 2",>100 h
"CS(=O)(=O)Nc1ccc([N+](=O)[O-])cc1OC1CCCCC1 [NS398, reference compound]",PGE2 production,PGE2 production,reduced to the same extent
same,classification as fast-acting or slow-acting apoptosis inducer,PC-3 cells,slow-acting apoptosis inducer
"4-[5-(2,4-Dimethylphenyl)-3-(trifluoromethyl)-1H-pyrazol-1-yl]benzene-carboxyamide [Compound 37b]",change in potency in apoptosis induction on replacement of —SO2NH2 with —CONH2,PC-3 cells,no appreciable change
Cc1ccco1 [Compound 26b],T½ (h) 50 μM,"PC-3 cells; 50 μM, Table 2",>100 h
Cc1ccc(C)c(-c2cc(C(F)(F)F)nn2-c2ccc(S(N)(=O)=O)cc2)c1 [Example 7],IC50,COX-2,> 100 µM
same,T½ (h) 50 μM,"PC-3 cells; 50 μM, Table 1",1 h
NS(=O)(=O)c1ccc(-n2nc(C(F)(F)F)cc2-c2ccccc2Cl)cc1 [Example 13],T½ (h) 50 μM,"PC-3 cells; 50 μM, Table 1",4 h
COc1ccc(OC)c(C)c1 [Compound 23b],T½ (h) 50 μM,"PC-3 cells; 50 μM, Table 2",>100 h
NS(=O)(=O)c1ccc(-n2nc(C(F)(F)F)cc2-c2ccc(Cl)cc2Cl)cc1 [Example 12],T½ (h) 50 μM,"PC-3 cells; 50 μM, Table 1",2 h
Cc1ccc(F)cc1F [Compound 4b],T½ (h) 50 μM,"PC-3 cells; 50 μM, Table 2",>100 h
Cc1ccc(-c2ccnn2-c2ccc(S(N)(=O)=O)cc2)cc1 [Compound 40b],activity in eliciting apoptosis in PC-3 cells (in words),PC-3 cells; PC-3 cells,loss of high potency
Fc1ccc(F)cc1 [Compound 5b],T½ (h) 50 μM,"PC-3 cells; 50 μM, Table 2",>100 h
"Cc1ccc(C)c(-c2cc(C(F)(F)F)nn2-c2ccc(S(N)(=O)=O)cc2)c1 [compound 7a, 4-[5-(2,5-dimethylphenyl)-3-(trifluoromethyl)-1H-pyrazol-1-yl]benzenesulfonamide]",time to 50% decrease in cell viability,"PC-3 cells; 50 μM, PC-3 cells",within an hour
"NS(=O)(=O)c1ccc(C2=C(c3ccc(Cl)c(Cl)c3)COC2=O)cc1 [Compound 49b, 3-(4-sulfamoylphenyl)-4-(3′,4′-dichlorophenyl)-2(5H)-furanone]",T1/2 at 50 μM,"PC-3 cells; 50 μM, PC-3 cells",15 h
"4-[5-(3,4-Dichlorophenyl)-3-(trifluoromethyl)-1H-pyrazol-1-yl]benzene-carboxyamide [Compound 33b]",change in potency in apoptosis induction on replacement of —SO2NH2 with —CONH2,PC-3 cells,no appreciable change
Cc1ccc(C)c(C)c1 [Compound 21b],T½ (h) 50 μM,"PC-3 cells; 50 μM, Table 2",2 h
"CS(=O)(=O)c1ccc(C2=C(c3ccccc3)C(=O)OC2)cc1 [rofecoxib, reference compound]",PGE2 production,PGE2 production,reduced to the same extent
same,classification as fast-acting or slow-acting apoptosis inducer,PC-3 cells,slow-acting apoptosis inducer
"4-[5-(2,4-Dichlorophenyl)-3-(trifluoromethyl)-1H-pyrazol-1-yl]benzene-carboxyamide [Compound 31b]",change in potency in apoptosis induction on replacement of —SO2NH2 with —CONH2,PC-3 cells,no appreciable change
